Assay results from US20040176317A1, “Functionalised maltosyl fluoride as glycosyl donor in the chemo-enzymatic preparation of ratio of oligo-or polysaccharides” (priority 2001, published 2004).

Test: Storage stability of the lyophilized fluoride
Assay type: physicochemical
Settings: for stability of the fluoride: at −18° C. in the lyophilized form
Description: This fluoride is stable at −18° C. in the lyophilized form.

| Structure (SMILES) | first decomposition compound | stability of the fluoride |
| --- | --- | --- |
| OCC1O[C@H](O[C@@H]2C(CO)O[C@H](F)C(O)C2O)C(O)C(O)[C@@H]1OC1CCCCO1 (stereo partly drawn) [Example 1e, 4-0-tetrahydropyranyl-α-D-glucopyran-osyl-(1→4)-α-D-glucopyranosyl fluoride] | α-maltosyl fluoride | stable |
| OC[C@H]1O[C@H](F)[C@H](O)[C@@H](O)[C@@H]1O[C@H]1O[C@H](CBr)[C@@H](OC2CCCCO2)[C@H](O)[C@H]1O (stereo partly drawn) [Example 4d, 6-bromo-6-deoxy-4-O-tetrahydro-pyranyl-α-D-glucopyranosyl-(1→4)-α-D-glucopyranosyl fluoride] |  | stable |
